The source of these data is patent publication US10246469B2, “Biaryl kinase inhibitors” (BRISTOL-MYERS SQUIBB COMPANY, priority 2015, dated 2019).

The assay concerns the target T1, GST-Xa-hAAK1 (Homo sapiens, UniProt Q2M2I8).
T1 construct: GST (N); Factor Xa cleavage site (Xa) (internal); made in house
Nature of the assay: AAK1 Kinase Assay. The format is biochemical. The conditions noted are these: bacterially expressed GST-Xa-hAAK1 3.5 nM; ATP 22 μM; fluoresceinated peptide 1.5 μM; 3 hours at room temperature; Caliper LabChip 3000. The method, boiled down: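 Bacterially expressed GST-Xa-hAAK1 (3.5 nM) phosphorylated 1.5 μM 5-FAM peptide with 22 μM ATP in Tris pH 7.4, MgCl2, DTT, 1.6% DMSO, 3 h at room temperature. EDTA-stopped; product separated electrophoretically on Caliper LabChip. IC50 from eleven concentrations by non-linear regression.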

T1 sequence (Q2M2I8 whole entry): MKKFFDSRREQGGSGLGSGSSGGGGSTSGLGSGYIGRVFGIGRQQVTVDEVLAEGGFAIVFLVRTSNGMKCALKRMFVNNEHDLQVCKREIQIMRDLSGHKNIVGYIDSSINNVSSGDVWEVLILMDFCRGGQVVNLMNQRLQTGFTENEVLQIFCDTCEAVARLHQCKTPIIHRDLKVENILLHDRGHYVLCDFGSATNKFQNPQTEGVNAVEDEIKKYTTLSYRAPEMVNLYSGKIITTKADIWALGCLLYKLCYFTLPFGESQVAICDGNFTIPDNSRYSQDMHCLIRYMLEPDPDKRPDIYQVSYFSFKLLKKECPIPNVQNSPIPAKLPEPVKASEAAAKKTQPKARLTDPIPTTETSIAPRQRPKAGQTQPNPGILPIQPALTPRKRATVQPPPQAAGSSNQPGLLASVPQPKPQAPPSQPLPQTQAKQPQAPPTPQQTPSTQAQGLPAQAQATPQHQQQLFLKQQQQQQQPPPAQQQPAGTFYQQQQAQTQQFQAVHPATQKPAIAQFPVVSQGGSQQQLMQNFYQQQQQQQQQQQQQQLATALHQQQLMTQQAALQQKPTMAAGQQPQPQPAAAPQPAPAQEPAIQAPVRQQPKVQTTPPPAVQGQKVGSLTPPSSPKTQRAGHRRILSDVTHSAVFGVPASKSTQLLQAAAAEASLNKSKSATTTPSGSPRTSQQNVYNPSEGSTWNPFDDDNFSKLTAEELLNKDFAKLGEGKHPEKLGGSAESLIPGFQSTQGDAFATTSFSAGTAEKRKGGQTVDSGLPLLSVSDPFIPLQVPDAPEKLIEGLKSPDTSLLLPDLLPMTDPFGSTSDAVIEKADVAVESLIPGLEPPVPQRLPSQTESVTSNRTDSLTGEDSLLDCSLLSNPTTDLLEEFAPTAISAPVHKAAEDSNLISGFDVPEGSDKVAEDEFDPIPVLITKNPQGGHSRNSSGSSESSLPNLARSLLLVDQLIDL

As for `CC(C)C[C@](C)(N)COc1ccc(-c2cc(NC3CCOC3)ncn2)cc1C(F)(F)F` (stereo partly drawn) [Example 448, 6-(4-(((S)-2-amino-2,4-dimethylpentyl)oxy)-3-(trifluoromethyl)phenyl)-N-(tetrahydrofuran-3-yl)pyrimidin-4-amine], the IC50 was 0.399 µM.

Take `CC(C)C[C@](C)(N)COc1ncc(-c2cc(NC3CCOC3)ncn2)cc1Cl` (stereo partly drawn) [Example 449, 6-(6-(((S)-2-amino-2,4-dimethylpentyl)oxy)-5-chloropyridin-3-yl)-N-(tetrahydrofuran-3-yl)pyrimidin-4-amine]: the IC50 came to 0.352 µM. With `Cc1cn2nccc(-c3ccc(OC[C@@](C)(N)CC(C)C)c(C)n3)c2n1` [Example 452, (S)-2,4-dimethyl-1-((2-methyl-6-(2-methylimidazo[1,2-b]pyridazin-8-yl)pyridin-3-yl)oxy)pentan-2-amine] the figure was 0.011 µM. With `Cc1cn2nccc(-c3ccc(OC[C@@](C)(N)CC(C)C)c(C(F)F)n3)c2n1` [Example 453, (S)-1-((2-(difluoromethyl)-6-(2-methylimidazo[1,2-b]pyridazin-8-yl)pyridin-3-yl)oxy)-2,4-dimethylpentan-2-amine], the IC50 was determined as 0.0004 µM.

For `CC(C)C[C@](C)(N)COc1ccc(-c2cc(N)nc3ccnn23)c(F)c1` [Example 455, (S)-7-(4-((2-amino-2,4-dimethylpentyl)oxy)-2-fluorophenyl)pyrazolo[1,5-a]pyrimidin-5-amine], the half-maximal inhibitory concentration (IC50) worked out at 0.391 µM.

In the case of `CC(C)C[C@](C)(N)COc1ccc(-c2ccnc3ccnn23)cc1Cl` [Example 456, (S)-1-(2-chloro-4-(pyrazolo [1,5-a]pyrimidin-7-yl)phenoxy)-2,4-dimethylpentan-2-amine], the half-inhibitory concentration (IC50) turned out to be 0.001 µM. Under `CC(C)C[C@](C)(N)COc1ccc(-c2cc(N)nc3ccnn23)cc1F` [Example 457, (S)-7-(4-((2-amino-2,4-dimethylpentyl)oxy)-3-fluorophenyl)pyrazolo[1,5-a]pyrimidin-5-amine] stands 0.16 µM.

In the case of `Cc1cc(-c2ccc(OC[C@@](C)(N)CC(C)C)c(Cl)c2)n2nc(C)cc2n1` [Example 459, (S)-1-(2-chloro-4-(2,5-dimethylpyrazolo[1,5-a]pyrimidin-7-yl)phenoxy)-2,4-dimethylpentan-2-amine], the IC50 was determined as 1.27 µM. With `CC(C)C[C@](C)(N)COc1ccc(-c2ccnc3ccnn23)cc1C#N` [Example 460, (S)-2-((2-amino-2,4-dimethylpentyl)oxy)-5-(pyrazolo[1,5-a]pyrimidin-7-yl)benzonitrile] the figure was 0.0006 µM; with `CC(C)C[C@](C)(N)COc1ccc(-c2ccnc3ccnn23)cc1F` [Example 461, (S)-1-(2-fluoro-4-(pyrazolo [1,5-a]pyrimidin-7-yl)phenoxy)-2,4-dimethylpentan-2-amine], 0.0029 µM. Under `CC(=O)Nc1cc(-c2ccc(OC[C@@](C)(N)CC(C)C)c(F)c2)n2nccc2n1` [Example 463, (S)—N-(7-(4-((2-amino-2,4-dimethylpentyl)oxy)-3-fluorophenyl)pyrazolo [1,5-a]pyrimidin-5-yl) acetamide] stands 0.184 µM; under `Cc1cc(-c2ccc(OC[C@@](C)(N)CC(C)C)c(C#N)c2)n2nc(C)cc2n1` [Example 464, (S)-2-((2-amino-2,4-dimethylpentyl)oxy)-5-(2,5-dimethylpyrazolo[1,5-a]pyrimidin-7-yl)benzonitrile], 0.495 µM; under `CC(C)C[C@](C)(N)COc1ccc(-c2ccnc(NC3CCNCC3)c2)cc1C#N` [Example 466, (S)-2-(2-amino-2,4-dimethylpentyloxy)-5-(2-(piperidin-4-ylamino)pyridin-4-yl) benzonitrile], 0.064 µM. On to `CC(C)C[C@](C)(N)COc1ccc(-c2ccnc3ccnn23)cc1C(F)(F)F` [Example 467, (S)-2,4-dimethyl-1-(4-(pyrazolo[1,5-a]pyrimidin-7-yl)-2-(trifluoromethyl)phenoxy)pentan-2-amine], for which the IC50 is 0.0004 µM. With `CC(C)C[C@](C)(N)COc1ccc(-c2ccnc(NC3CCOCC3)c2)cc1C#N` [Example 468, (S)-2-(2-amino-2,4-dimethylpentyloxy)-5-(2-(tetrahydro-2H-pyran-4-ylamino)pyridin-4yl)benzonitrile] the figure was 0.054 µM.

`CC(C)C[C@](C)(N)COc1ccc(-c2ccnc(NC3CCNCC3)c2)cc1C(F)(F)F` [Example 470, (S)-4-(4-(2-amino-2,4-dimethylpentyloxy)-3-(trifluoromethyl)phenyl)-N-(piperidin-4-yl)pyridin-2-amine]: the IC50 was determined as 0.138 µM. `CC(C)C[C@](C)(N)COc1ccc(-c2ncnc3cc(F)c(F)cc23)cc1C(F)(F)F` [Example 471, (S)-1-(4-(6,7-difluoroquinazolin-4-yl)-2-(trifluoromethyl)phenoxy)-2,4-dimethylpentan-2-amine]: the IC50 was 0.0063 µM.

Regarding `Cc1cc(-c2ccnc3ccnn23)ccc1OC[C@@](C)(N)CC(C)C` [Example 472, (S)-2,4-dimethyl-1-(2-methyl-4-(pyrazolo[1,5-a]pyrimidin-7-yl)phenoxy)pentan-2-amine], the IC50 was 0.0005 µM. On to `CC(C)C[C@](C)(N)COc1ccc(-c2cnn3cccnc23)cc1C(F)(F)F` [Example 473, (S)-2,4-dimethyl-1-(4-(pyrazolo[1,5-a]pyrimidin-3-yl)-2-(trifluoromethyl)phenoxy)pentan-2-amine], for which the IC50 was 0.112 µM. For `Cc1nc(-c2cnn3cc(C#N)cnc23)ccc1OC[C@@](C)(N)CC(C)C` [Example 478, (S)-3-(5-((2-amino-2,4-dimethylpentyl)oxy)-6-methylpyridin-2-yl)pyrazolo[1,5-a]pyrimidine-6-carbonitrile], the IC50 worked out at 0.011 µM. With `Cc1nc(-c2ccc(OC[C@@](C)(N)CC(C)C)c(C(F)(F)F)c2)c2ccsc2n1` [Example 481, (S)-2,4-dimethyl-1-(4-(2-methylthieno[2,3-d]pyrimidin-4-yl)-2-(trifluoromethyl)phenoxy)pentan-2-amine] the figure was 0.052 µM; with `CC(C)C[C@](C)(N)COc1ccc(-c2ccnc3cc(C4CC4)nn23)cc1Cl` [Example 482, (S)-1-(2-chloro-4-(2-cyclopropylpyrazolo[1,5-a]pyrimidin-7-yl)phenoxy)-2,4-dimethylpentan-2-amine], 0.0014 µM. Under `CC(C)C[C@](C)(N)COc1ccc(-c2ccnc3cc(C4CC4)nn23)cc1C(F)(F)F` [Example 483, (S)-1-(4-(2-Cyclopropylpyrazolo[1,5-a]pyrimidin-7-yl)-2-(trifluoromethyl)phenoxy)-2,4-dimethylpentan-2-amine] stands 0.0027 µM; under `CC(C)C[C@](C)(N)COc1ccc(-c2ccnc3cc(C(F)(F)F)nn23)cc1C#N` [Example 485, (S)-2-((2-amino-2,4-dimethylpentyl)oxy)-5-(2-(trifluoromethyl)pyrazolo[1,5-a]pyrimidin-7-yl)benzonitrile], 0.0045 µM; under `CC(C)C[C@](C)(N)COc1cnc(-c2ccnc3ccnn23)cc1C#N` [Example 486, (S)-5-((2-amino-2,4-dimethylpentyl)oxy)-2-(pyrazolo[1,5-a]pyrimidin-7-yl)isonicotinonitrile], 1.37 µM. Under `Cc1nc(-c2ccnc3ccnn23)ccc1OC[C@@](C)(N)CC(C)C` [Example 488, (S)-2,4-dimethyl-1-((2-methyl-6-(pyrazolo[1,5-a]pyrimidin-7-yl)pyridin-3-yl)oxy)pentan-2-amine] stands 0.004 µM. For `CC(C)C[C@](C)(N)COc1cc(F)c(-c2ccnc3ccnn23)cc1F` [Example 489, (S)-1-(2,5-difluoro-4-(pyrazolo[1,5-a]pyrimidin-7-yl)phenoxy)-2,4-dimethylpentan-2-amine], the IC50 stood at 0.278 µM. Under `Cc1nc(-c2ccnc3ccnn23)ccc1OCC(N)(CC(C)C)C(F)(F)F` (stereo not shown) [Example 490, 1,1,1-trifluoro-4-methyl-2-(((2-methyl-6-(pyrazolo[1,5-a]pyrimidin-7-yl)pyridin-3-yl)oxy)methyl)pentan-2-amine] stands 0.037 µM; under `Cc1cn2nccc(-c3ccc(OC[C@@](C)(N)CC(C)C)c(C#N)c3)c2n1` [Example 492, (S)-2-((2-amino-2,4-dimethylpentyl)oxy)-5-(2-methylimidazo[1,2-b]pyridazin-8-yl)benzonitrile], 0.0018 µM. Consider `CC(C)C[C@](C)(N)COc1ccc(-c2ccnn3cc(C4CC4)nc23)cc1F` [Example 493, (S)-1-(4-(2-cyclopropylimidazo[1,2-b]pyridazin-8-yl)-2-fluorophenoxy)-2,4-dimethylpentan-2-amine], for which the IC50 was determined as 0.015 µM.

For `CC(C)C[C@](C)(N)COc1ccc(-c2cc(Cl)nn3cc(C4CC4)nc23)cc1C#N` [Example 494, (5)-2-((2-amino-2,4-dimethylpentyl)oxy)-5-(6-chloro-2-cyclopropylimidazo[1,2-b]pyridazin-8-yl)benzonitrile], the IC50 came to 0.222 µM. Take `Cc1cn2nc(Cl)cc(-c3ccc(OC[C@@](C)(N)CC(C)C)c(C(F)(F)F)c3)c2n1` [Example 495, (S)-1-(4-(6-chloro-2-methylimidazo [1,2-b]pyridazin-8-yl)-2-(trifluoromethyl)phenoxy)-2,4-dimethylpentan-2-amine]: the IC50 amounted to 0.066 µM. `CC(C)C[C@](C)(N)COc1ccc(-c2cc(Cl)nn3cc(C4CC4)nc23)cc1C(F)(F)F` [Example 496, (S)-1-(4-(6-chloro-2-cyclopropylimidazo [1,2-b]pyridazin-8-yl)-2-(trifluoromethyl)phenoxy)-2,4-dimethylpentan-2-amine]: the IC50 turned out to be 0.297 µM.

`Cc1cn2nccc(-c3ccc(OC[C@@](C)(N)CC(C)C)c(F)c3)c2n1` [Example 497, (S)-1-(2-fluoro-4-(2-methylimidazo [1,2-b]pyridazin-8-yl)phenoxy)-2,4-dimethylpentan-2-amine]: the IC50 was determined as 0.011 µM.

The term IC50 denotes the concentration that gives 50% inhibition.
